Laboratory results: patent US12544335B2, “Treatment approach by targeted delivery of bioactive molecules” (priority 2018, dated 2026)

Experiments:
[1] = In-vitro release of isoniazid from CaS/HA pellets in PBS; format: physicochemical; conditions: day 1, PBS
Description: Method: Isoniazid was mixed to CaS/HA biomaterial and equal volume pellets were created. Each pellet was then placed in a 1.5 mL tube and filled with 1 mL phosphate buffered saline (PBS). At each time point, the old PBS was removed and frozen until the day of analysis. The tube was refilled with fresh PBS (1 mL). All samples were analyzed spectrophotometrically and the concentration of the released antibiotic was calculated from a standard curve of isoniazid made in PBS.

S. aureus = assay: Example 18: zone of inhibition of materials harvested from rat muscle pouch; format: cell-based; conditions: Cerament G / Cerament V, 2 weeks implanted, no systemic antibiotic
From the text: Small pellets of pristine hydroxyapatite (HA) of nano or micro size (wherein the micro-HA particles are about 10 μm, wherein the nano-HA particles are less than 200 nm and a majority of the nano-HA particles about 50 nm) were implanted in the abdominal muscle pouch of rats (Group 1). In another set of animals, pellets of calcium sulphate and micro-sized HA (Cerament) containing gentamycin (Cerament G) or vancomycin (Cerament V) were implanted in the muscle pouch of rats (Group 2).
[…] Tibial cortical bone samples were also collected as positive control and muscle tissue from the abdomen was collected as a negative control.
In group 2, no antibiotics were administered systemically, and the implants only contained locally added antibiotics at the time of administration.
All samples were snap frozen in liquid nitrogen and pulverized using a mortar and pestle. Pulverized specimens were then placed in a silicon mold, casted as a pellet and placed in a bacterial culture plate containing S. aureus, a common pathogen found in bone and joint infections.

[2] = Accretion and long-term availability of 14C-ZA in CaS/HA in femoral neck canal; format: in vivo, osteoporotic rats; conditions: systemic dose 0.1 mg/kg 2 weeks post implantation
Description: Methods: The CaS/HA biomaterial was implanted in the femoral neck canal of 6 osteoporotic rats. The animals (n=3) then received a systemic (sub-cutaneous) dose of ^14C-ZA (0.1 mg/kg, specific radioactivity: 7.1 MBq/mL) 2-weeks post implantation. The animals were sacrificed 6 months post implantation (5 months and 2 weeks post injection). Results: The uptake of ^14C-ZA in the animals that were given a systemic dose of ^14C-ZA was verified using scintillation counting. Results are illustrated in FIG. 6.

[3] = Uptake of systemic 14C-ZA in CaS/HA pellet in abdominal muscle pouch; format: in vivo, rats
Description: 2-weeks after surgery, the animals were injected with ^14C labelled ZA (0.1 mg/kg, specific radioactivity: 7.1 MBq/mL) via the systemic route (sub-cutaneous) and the radioactivity was measured in 1) the CaS/HA pellet placed in the muscle and 2) surrounding muscle 24-h later.

[4] = Apatite particle size dependence of 14C-ZA uptake in muscle pouch; format: in vivo, rats; conditions: 25 mg particles, 0.1 mg/kg ZA 2 weeks post implantation, 1 day post injection
Description: Method: We used 25 mg of micro sized pure apatite particles (size: 10 μm) and 25 mg of nano sized apatite particles (size: <200 nm) and placed them bilaterally in the abdominal muscle pouch of rats. Each animal then received a systemic dose of ^14C-ZA 2-weeks post implantation (Injection dose: 0.1 mg/kg ZA, drug/rat: 40 μg, specific radioactivity: 7.1 MBq/mL, ZA concentration: 1 mg/mL). The rats were sacrificed 1-day post injection and the radioactivity in micro and nano apatite particles was measured using scintillation counting.

[5] = Re-loading of apatite particles by repeated 14C-ZA injection; format: in vivo, rats; conditions: injections day 14 and day 27, average
Description: Methods: We used 25 mg of micro sized pure apatite particles (size: 10 μm) and 25 mg of nano sized apatite particles (size: <200 nm) and placed them bilaterally in the abdominal muscle pouch of rats. Two different time points were used. At time point 1 (day 14), all animals received the same amount of the radioactive ^14C-ZA. […] All animals were sacrificed a day later and the uptake of the drug measured in the apatite particles of two different sizes using scintillation counting.

[6] = In-vitro doxorubicin binding to apatite particles; conditions: 10 μg Doxorubicin in 1 mL PBS, 48 h
Description: Methods: 5 mg, 10 mg and 20 mg apatite particles were suspended in 1 mL PBS containing 10 μg Doxorubicin and homogenously distributed in the suspension using sonication for 5 min. The specimens were rotated gently on a rotational shaker for 48 h (speed: 50 rpm). After 48 h, the specimens were centrifuged to obtain a pellet of the apatite particles and the supernatant was collected. The apatite particles were then resuspended in 1 mL of PBS, thoroughly pipetted to wash the unbound drug. At this point, the particles were centrifuged again and the supernatant was collected. The washing was repeated once again using the same protocol and the supernatant from the original time and 2 supernatants from the washing steps were measured for fluorescence on a spectro fluorimeter (excitation: 485 nm and emission: 580 nm). Bound doxorubicin to the apatite particles was also detected using fluorescence microscopy. Unbound free drug was used as a control.

[7] = In-vitro doxorubicin release from CaS/HA pellets; format: physicochemical
Description: Methods: Pellets of CaS/HA biomaterial were made by mixing 10 μg Doxorubicin/pellet. Each pellet containing 10 μg Doxorubicin was immersed in 1 mL PBS at two different pH (5 and 7.4). At each time point, old PBS was frozen until further analysis and the tube refilled with 1 mL fresh PBS. The experiment was conducted for a period of 4-weeks. Supernatants were analyzed on a spectro fluorimeter (excitation: 485 nm and emission: 580 nm).

[8] = In-vivo doxorubicin binding to nano apatite particles in muscle pouch, fluorescence microscopy; design: species or system rats
Description: Methods: 25 mg of nano sized apatite particles (size <200 nm) were implanted in the abdominal muscle pouch of rats. Animals were injected with 5 mg/kg doxorubicin re-suspended in PBS 2-weeks post implantation and the animals were sacrificed 1 day later. The specimens were harvested from the implanted muscle pouch and as a positive control, the site of doxorubicin systemic injection (skin under the neck) was also taken for histology. The samples were embedded in paraffin and cut to a thickness of 5 μm. The samples were then analyzed on a fluorescent microscope (excitation: 485 nm and emission: 580 nm).

[9] = Tetracycline uptake in CaS/HA pellet in muscle pouch, fluorescence microscopy; conditions: 1 day later
Description: Methods: A pellet of CaS/HA biomaterial (5 mm diameter×2 mm height) was placed in an abdominal muscle pouch of rats. […] 1-day later, the animals were sacrificed and the pellet of CaS/HA as well as surrounding muscle was harvested, fixed in formalin (4%) and embedded in paraffin. The tissue was then cut using a microtome to a thickness of 5 μm. The sections were de-paraffinized using xylene, rehydrated using decreasing ethanol gradient and cleared in water. Finally, the sections were analyzed on a fluorescence microscope (Zeiss, Japan Filter: FITC, Gain: 0, Exposure: 150 ms).

S. aureus ATCC 25923 = assay: In-vivo biomodulation of HA pellets by systemic TET, disk diffusion assay; format: cell-based; conditions: TET 25 mg/rat i.p. for 3 days, 24 h after 3rd injection
Description: METHODS: (1) In-vitro binding experiment: Nano-HA powder of <200 nm particle size, with a majority of the particles being in size of about 50 nm (100 mg; Fluidnova) was measured in 2 mL microcentrifuge tubes in triplicates and 1 mL of TET solution (4 μg/mL) was added. After vortex mixing, tubes were kept on a rotator at 180 RPM for 1, 6, and 12 h. At desired time points, the tubes were removed and centrifuged at 14000 RPM for 2 min. The supernatant was discarded and sediments were then “washed” 4 times by adding 1 mL of saline (NaCl 0.9%) followed by vortex mixing and centrifuging at 14000 RPM for 2 min. After 4 washing-cycles, supernatants were discarded and 60 μL of hyaluronic acid (HAD, 1 mg/mL) was added to the sediments and mixed. Pastes were then transferred to an elastic mold (Ø=4.7 mm) and placed at −20° C. for an hour to freeze nano-HA paste into pellet. Frozen pellets were removed from the molds and brought to room temperature. […] After overnight incubation at 37° C., the diameter of the zone of inhibition (ZOI) around the pellets were measured.
(2) In-vivo biomodulation: Pellets of nano-/micro-HA were prepared by mixing 100 mg of nano-/micro-HA (Fluidnova, wherein the micro-HA particles are about 10 μm, and wherein the nano-HA particles are less than 200 nm and a majority of the nano-HA particles about 50 nm) with 60 and 80 μL of HAD, (1 mg/mL) respectively. […]

[10] = Long term elution of gentamycin from HA/Sulphate carrier; format: physicochemical

NNC(=O)c1ccncc1 [Isoniazid]
antibiotic released from CaS/HA [1]: approximately 60%

CN[C@H](CC(C)C)C(=O)N[C@H]1C(=O)N[C@@H](CC(N)=O)C(=O)N[C@H]2C(=O)N[C@H]3C(=O)N[C@H](C(=O)N[C@H](C(=O)O)c4cc(O)cc(O)c4-c4cc3ccc4O)[C@H](O)c3ccc(c(Cl)c3)Oc3cc2cc(c3O[C@@H]2O[C@H](CO)[C@@H](O)[C@H](O)[C@H]2O[C@H]2C[C@](C)(N)[C@H](O)[C@H](C)O2)Oc2ccc(cc2Cl)[C@H]1O [Vancomycin]
inhibition of bacterial growth by CaS/HA with locally added antibiotic (S. aureus): could not inhibit bacterial growth

O=P(O)(O)C(O)(Cn1ccnc1)P(=O)(O)O [ZA, Zoledronic Acid]
time the drug stays in the apatite material ([2]; listed as zoledronic acid): 6 months

O=P(O)(O)C(O)(Cn1ccnc1)P(=O)(O)O [^14C-ZA]
uptake of 14C-ZA in CaS/HA biomaterial ([3]; 0.1 mg/kg sub-cutaneous 2 weeks after surgery, measured 24 h later): obvious
radioactivity in muscle surrounding the implant ([3]; 0.1 mg/kg sub-cutaneous, 24 h later): very low radioactive counts
time the drug stays in the apatite material [2]: at least 6 months
uptake of 14C-ZA, micro (10 μm) vs nano (<200 nm) apatite particles [4]: higher in micro-apatite particles compared to nano-apatite particles in 4 out of 5 specimens
increase of counts of 14C-ZA after 2 injections compared to one injection ([5]; micro-particles (10 μm)): 72%
higher counts of 14C-ZA after 2 injections compared to one injection ([5]; nano-apatite particles (<200 nm)): 77%

COc1cccc2c1C(=O)c1c(O)c3c(c(O)c1C2=O)C[C@@](O)(C(=O)CO)C[C@@H]3O[C@H]1C[C@H](N)[C@H](O)[C@H](C)O1 [doxorubicin]
drug bound to apatite particles ([6]; 5 mg apatite particles): approximately 10%
drug bound to apatite particles ([6]; 10 mg apatite particles): 30%
drug bound to apatite particles ([6]; 20 mg apatite particles): approximately 75%
release at later time points ([7]; after day 3, up to 4 weeks): No further release
burst release of the drug from CaS/HA ([7]; day 1 and 3, PBS pH 5 and 7.4, 10 μg/pellet): 20-35%
release in low pH group compared with pH 7.4 ([7]; pH 5 vs 7.4): slightly higher release
fluorescence at the site of injection ([8]; 5 mg/kg, 1 day after injection, positive control site): Strong fluorescent staining
fluorescence in muscle 1 cm distal from the implant ([8]; 5 mg/kg, 1 day later): did not show any fluorescence
fluorescence in apatite particles and area immediately around ([8]; 25 mg nano apatite, 5 mg/kg 2 weeks post implantation, 1 day later): relatively weak but positive signal

CN(C)[C@@H]1C(O)=C(C(N)=O)C(=O)[C@@]2(O)C(O)=C3C(=O)c4c(O)cccc4[C@@](C)(O)[C@H]3C[C@@H]12 [tetracycline]
uptake of tetracycline in CaS/HA biomaterial ([9]; 25 mg/kg sub-cutaneous 2 weeks after surgery): clear uptake
uptake of tetracycline in surrounding muscle ([9]; 25 mg/kg sub-cutaneous): no uptake
ZOI of kidney samples (S. aureus ATCC 25923): 14-17 mm
ZOI of liver samples (S. aureus ATCC 25923): 10-12 mm

Gentamycin
release of gentamycin from biphasic HA/Sulphate carrier ([10]; at one month): complete release
time by which the Apatite/Sulphate material releases gentamycin ([10]; trend line, elution over 2 months): ≤ 4 weeks
inhibition of bacterial growth by CaS/HA with locally added antibiotic (S. aureus): could not inhibit bacterial growth
